Where “and” joins values, the source holds several entries; their conditions need not be identical. Identical values can stand only once. ± gives the uncertainty stated by the source.
Experiment: xn = mol fraction of the nth substance listed

CCCCCCCCCCCCCC[n+]1ccccc1.O=C([O-])C(O)c1ccccc1 + NCC(=O)O + O
electrical conductivity [S/m], 101 kPa
Settings	293.15 K	298.15 K	303.15 K	308.15 K	313.15 K
x1 = 5.26e-06, x2 = 0.001799	0.00213 ± 0.00065	0.0024 ± 0.00073	0.00272 ± 0.00082	0.00305 ± 0.00091	0.0034 ± 0.001
x1 = 6.85e-06, x2 = 0	0.00248 ± 0.00074	0.00278 ± 0.00083	0.00309 ± 0.00092	0.0034 ± 0.001	0.0037 ± 0.0011
x1 = 8.31e-06, x2 = 0.0009002	0.00273 ± 0.00067	0.00309 ± 0.00075	0.00343 ± 0.00084	0.00385 ± 0.00094	0.0042 ± 0.001
x1 = 1.142e-05, x2 = 0.001799	0.00389 ± 0.00073	0.00438 ± 0.00082	0.00491 ± 0.00092	0.0055 ± 0.001	0.006 ± 0.0011
x1 = 1.319e-05, x2 = 0.0009002	0.00415 ± 0.00075	0.0047 ± 0.00085	0.00527 ± 0.00096	0.0058 ± 0.001	0.0064 ± 0.0011
x1 = 1.424e-05, x2 = 0	0.00472 ± 0.00079	0.00529 ± 0.00089	0.00587 ± 0.00099	0.0065 ± 0.0011	0.0071 ± 0.0012
x1 = 1.685e-05, x2 = 0.001799	0.0054 ± 0.00081	0.0061 ± 0.00092	0.0069 ± 0.001	0.0076 ± 0.0011	0.0084 ± 0.0013
x1 = 1.735e-05, x2 = 0.0009002	0.00534 ± 0.00078	0.00605 ± 0.00089	0.00678 ± 0.00099	0.0075 ± 0.0011	0.0082 ± 0.0012
x1 = 2.12e-05, x2 = 0.001799	0.0066 ± 0.00089	0.0075 ± 0.001	0.0084 ± 0.0011	0.0093 ± 0.0013	0.0102 ± 0.0014
x1 = 2.126e-05, x2 = 0	0.00671 ± 0.0009	0.0076 ± 0.001	0.0084 ± 0.0011	0.0093 ± 0.0013	0.0101 ± 0.0014
x1 = 2.367e-05, x2 = 0.0009002	0.00703 ± 0.00092	0.008 ± 0.001	0.0089 ± 0.0012	0.0099 ± 0.0013	0.0108 ± 0.0014
x1 = 2.591e-05, x2 = 0.001799	0.00789 ± 0.00099	0.009 ± 0.0011	0.01 ± 0.0012	0.0111 ± 0.0014	0.0122 ± 0.0015
x1 = 2.811e-05, x2 = 0	0.0086 ± 0.001	0.0097 ± 0.0012	0.0108 ± 0.0013	0.0122 ± 0.0015	0.0131 ± 0.0016
x1 = 2.982e-05, x2 = 0.0009002	0.0088 ± 0.001	0.0098 ± 0.0012	0.011 ± 0.0013	0.0122 ± 0.0014	0.0134 ± 0.0016
x1 = 3.081e-05, x2 = 0.001799	0.0092 ± 0.0011	0.0104 ± 0.0012	0.0117 ± 0.0014	0.013 ± 0.0015	0.0143 ± 0.0017
x1 = 3.46e-05, x2 = 0	0.0103 ± 0.0011	0.0116 ± 0.0013	0.0129 ± 0.0014	0.0145 ± 0.0016	0.0157 ± 0.0018
x1 = 3.668e-05, x2 = 0.0009002	0.0104 ± 0.0011	0.0118 ± 0.0013	0.0132 ± 0.0014	0.0146 ± 0.0016	0.0161 ± 0.0018
x1 = 3.679e-05, x2 = 0.001799	0.0106 ± 0.0012	0.012 ± 0.0013	0.0134 ± 0.0015	0.015 ± 0.0016	0.0166 ± 0.0018
x1 = 4.108e-05, x2 = 0	0.0117 ± 0.0012	0.0131 ± 0.0014	0.0146 ± 0.0015	0.0161 ± 0.0017	0.0179 ± 0.0019
x1 = 4.337e-05, x2 = 0.0009001	0.0117 ± 0.0012	0.0131 ± 0.0014	0.0148 ± 0.0015	0.0165 ± 0.0017	0.0183 ± 0.0019
x1 = 4.367e-05, x2 = 0.001799	0.0119 ± 0.0013	0.0134 ± 0.0014	0.015 ± 0.0016	0.0168 ± 0.0018	0.0186 ± 0.002
x1 = 4.811e-05, x2 = 0	0.0129 ± 0.0013	0.0144 ± 0.0015	0.0161 ± 0.0017	0.0179 ± 0.0019	0.0198 ± 0.0021
x1 = 4.951e-05, x2 = 0.0009001	0.0126 ± 0.0013	0.0143 ± 0.0015	0.0159 ± 0.0016	0.0178 ± 0.0018	0.0198 ± 0.002
x1 = 5.11e-05, x2 = 0.001799	0.0131 ± 0.0014	0.0148 ± 0.0015	0.0166 ± 0.0017	0.0186 ± 0.0019	0.0206 ± 0.0021
x1 = 5.388e-05, x2 = 0	0.0137 ± 0.0014	0.0154 ± 0.0016	0.0172 ± 0.0018	0.0191 ± 0.002	0.0211 ± 0.0022
x1 = 5.602e-05, x2 = 0.0009001	0.0135 ± 0.0014	0.0153 ± 0.0016	0.0171 ± 0.0018	0.0191 ± 0.0019	0.0212 ± 0.0022
x1 = 5.726e-05, x2 = 0.001799	0.014 ± 0.0014	0.0158 ± 0.0016	0.0176 ± 0.0018	0.0198 ± 0.002	0.0219 ± 0.0022
x1 = 5.982e-05, x2 = 0	0.0145 ± 0.0015	0.0163 ± 0.0017	0.0182 ± 0.0019	0.0202 ± 0.0021	0.0224 ± 0.0023
x1 = 6.216e-05, x2 = 0.0009001	0.0144 ± 0.0015	0.0162 ± 0.0016	0.0181 ± 0.0019	0.0202 ± 0.0021	0.0224 ± 0.0023
x1 = 6.361e-05, x2 = 0.001799	0.0149 ± 0.0015	0.0167 ± 0.0017	0.0187 ± 0.0019	0.0209 ± 0.0021	0.0232 ± 0.0024
x1 = 6.559e-05, x2 = 0	0.0153 ± 0.0016	0.0172 ± 0.0018	0.0192 ± 0.0019	0.0213 ± 0.0022	0.0236 ± 0.0024
x1 = 6.885e-05, x2 = 0.0009001	0.0154 ± 0.0016	0.0172 ± 0.0018	0.0192 ± 0.002	0.0214 ± 0.0022	0.0239 ± 0.0024
x1 = 6.959e-05, x2 = 0.001799	0.0156 ± 0.0016	0.0176 ± 0.0018	0.0197 ± 0.002	0.0221 ± 0.0023	0.0245 ± 0.0025
x1 = 7.081e-05, x2 = 0	0.016 ± 0.0016	0.018 ± 0.0018	0.02 ± 0.002	0.0223 ± 0.0023	0.0246 ± 0.0025
x1 = 7.463e-05, x2 = 0.0009001	0.0161 ± 0.0016	0.0181 ± 0.0018	0.0202 ± 0.0021	0.0225 ± 0.0023	0.0251 ± 0.0026
x1 = 7.593e-05, x2 = 0.001799	0.0165 ± 0.0017	0.0185 ± 0.0019	0.0207 ± 0.0021	0.0233 ± 0.0024	0.0258 ± 0.0026
x1 = 7.604e-05, x2 = 0	0.0167 ± 0.0017	0.0187 ± 0.0019	0.0209 ± 0.0021	0.0232 ± 0.0024	0.0258 ± 0.0026
x1 = 8.023e-05, x2 = 0.0009001	0.0168 ± 0.0017	0.0189 ± 0.0019	0.0211 ± 0.0021	0.0237 ± 0.0024	0.0263 ± 0.0027
x1 = 8.072e-05, x2 = 0	0.0173 ± 0.0018	0.0194 ± 0.002	0.0217 ± 0.0022	0.0241 ± 0.0024	0.0266 ± 0.0027

CCCCCCCCCCOS(=O)(=O)[O-].CC[n+]1ccn(C)c1 + O
101 kPa, frequency 0.0005 MHz, x1 = 0.075
Settings	electrical conductivity [S/m]
308.15 K	2.87 ± 0.17
363.15 K	6.86 ± 0.41

CCC=C[n+]1ccn(C)c1C.O=[N+]([O-])c1cn[n-]c1 + COCCOCCOCCOCCOC
100 kPa
Settings	viscosity [mPa·s]
278.15 K, x1 = 0.601	267 ± 12
278.15 K, x1 = 0.952	4300 ± 400
283.15 K, x1 = 0.9	1510 ± 110
288.15 K, x1 = 0.9	864 ± 54
288.15 K, x1 = 0.952	1210 ± 84
293.15 K, x1 = 0.601	87 ± 2
298.15 K, x1 = 0.701	121 ± 3
298.15 K, x1 = 0.952	439 ± 21
303.15 K, x1 = 0.801	138 ± 4
313.15 K, x1 = 0.9	117 ± 3
323.15 K, x1 = 0.952	81 ± 2

O=S(=O)([N-]S(=O)(=O)C(F)(F)C(F)(F)F)C(F)(F)F.[Li+] + O=S(=O)([O-])C(F)(F)F.[Li+] + O
101 kPa
Settings	electrical conductivity, x1 = 0.1527, x2 = 0.1527 [S/m]	electrical conductivity, x1 = 0.2128, x2 = 0.08265	electrical conductivity, x1 = 0.2128, x2 = 0.1527 [S/m]	electrical conductivity, x1 = 0.2551, x2 = 0.08265	electrical conductivity, x1 = 0.2649, x2 = 0 [S/m]	electrical conductivity, x1 = 0.3106, x2 = 0.1527 [S/m]	viscosity, x1 = 0.2128, x2 = 0.08265 [mPa·s]	viscosity, x1 = 0.2551, x2 = 0.08265 [mPa·s]	viscosity, x1 = 0.2649, x2 = 0 [mPa·s]
283 K	–	0.39 ± 0.008 S/m	–	0.195 ± 0.004 S/m	0.36 ± 0.007	–	186 ± 5	406 ± 14	255 ± 8
293 K	–	0.57 ± 0.011 S/m	–	0.298 ± 0.006 S/m	0.531 ± 0.011	–	110 ± 3	228 ± 7	145 ± 4
298.1 K	0.83 ± 0.02	0.675 S/m and 0.68 S/m	0.41 ± 0.01	0.362 S/m and 0.37 S/m	0.646 ± 0.013	0.16 ± 0.01	87 ± 2.3	177 ± 5	114 ± 3
303 K	–	0.788 ± 0.016 S/m	–	0.433 ± 0.009 S/m	0.762 ± 0.015	–	70.9 ± 1.8	141 ± 4	89.8 ± 2.5
313 K	–	1.05 ± 0.02 S/m	–	0.599 ± 0.012 S/m	1.02 ± 0.02	–	48.4 ± 1.3	90.1 ± 2.2	58.8 ± 1.7
323 K	–	1.36 ± 0.03 S/m	–	0.791 ± 0.016 S/m	1.33 ± 0.03	–	33.9 ± 1	61.6 ± 1.5	40.2 ± 1.3
333 K	–	1.7 ± 0.03 S/m	–	1.02 ± 0.02 S/m	1.67 ± 0.03	–	24.8 ± 0.9	43.2 ± 1.1	29.1 ± 1.2

CCO + CCCC[n+]1ccn(C)c1.[Cl-]
Settings	viscosity [mPa·s]
303.15 K, 101 kPa, x1 = 1	0.99 ± 0.27

From the CheMixHub ionic liquid set
